Test results taken from patent US9133154B2, “Substituted 3-phenylpropylamine derivatives for the treatment of ophthalmic diseases and disorders” (Acucela Inc., priority 2013, dated 2015).

Test system: isomerase (recovery of 11-cis-retinal after bleaching)
Assay: In vivo murine isomerase assay
Conditions: mice, oral gavage
Description: The capability of compounds described herein to inhibit isomerase was determined by an in vivo murine isomerase assay. […] The recovery of 11-cis-retinal after bleaching can be used to estimate the activity of isomerase in vivo. Delayed recovery, as represented by lower 11-cis-retinal oxime levels, indicates inhibition of isomerization reaction.
Mice were gavaged with the test compound. […] The mice were allowed to recover 2 hours in the dark. The animals were then sacrificed by carbon dioxide inhalation. Retinoids were extracted from the eye and the regeneration of 11-cis-retinal was assessed at various time intervals.
After the mice were sacrificed, the eyes were immediately removed and placed in liquid nitrogen for storage.
The eyes were placed in 500 μL of bis-tris propane buffer (10 mM, pH˜7.3) and 20 μL of 0.8M hydroxile amine (pH˜7.3). The eyes were cut up into small pieces with small iris scissors and then thoroughly homogenized at 30000 rpm with a mechanical homogenizer (Polytron PT 1300 D) in the tube until no visible tissue remained. 500 μL of methanol and 500 μL of heptane were added to each tube. The tubes were attached to a vortexer so that the contents were mixed thoroughly for 15 minutes in room temperature. The organic phase was separated from the aqueous phase by centrifugation for 10 min at 13K rpm, 4° C. 240 μL of the solution from the top layer (organic phase) was removed and transferred to clean 300 μl glass inserts in HPLC vials using glass pipette and the vials were crimped shut tightly.
The samples were analyzed on an Agilent 1100 HPLC system with normal phase column: SILICA (Beckman Coutlier, dp 5 μm, 4.6 mM×250 mM). […] Loading volume for each sample was 100 μA detection wavelength was 360 nm. The area under the curve for 11-cis retinal oxime was calculated by Agilent Chemstation software and was recorded manually. Data processing was performed using Prizm software.
Positive control mice (no compound administered) were sacrificed fully dark-adapted and the eye retinoids analyzed. Light (bleached) control mice (no compound administered) were sacrificed and retinoids isolated and analyzed immediately after light treatment.
A time course study was performed to determine the isomerase inhibitory activity of the test compound. […] The animals were then “photo-bleached” (5000 Lux white light for 10 minutes) at 2, 4, 8, 16 and 24 hours after dosing, and returned to darkness to allow recovery of the 11-cis-retinal content of the eyes. Mice were sacrificed 2 hours after bleaching, eyes were enucleated, and retinoid content is analyzed by HPLC.
Recovery control mice (vehicle-only treated) were light-treated and left to recover for 2 hours in the dark before sacrifice and analysis. Light control mice (vehicle only treated) were sacrificed for analysis immediately after photo-bleaching.
An in vivo dose response isomerase inhibition study was performed with test compound. […] Recovery and retinoid analysis were performed as described above. Dark control mice were vehicle-only treated, sacrificed fully dark adapted without light treatment, and analyzed. Recovery control mice and light control mice were included in the study as per the initial phase.

`NCC[C@@H](O)c1cccc(OCC2CCOCC2)c1` [Example 1] was tested, and the “% Inhibition” value (dose 0.3 mg/kg, time 2 h) was 40.2%, the “% Inhibition” value (dose 1 mg/kg, time 2 h) was 96.7% and the “% Inhibition” value (dose 1 mg/kg, time 4 h) was 92.8%.
